Results: patent US20130210846A1, “USE OF NOVEL PAN-CDK INHIBITORS FOR TREATING TUMORS” (BAYER INTELLECTUAL PROPERTY GMBH, priority 2010, published 2013)

Assays:
HeLa-MaTu = assay: Proliferation assay HeLa-MaTu; type: cell-based, human; details: cervix carcinoma, 4 days, crystal violet
Experimental: (§1) Cultivated human tumor cells (originally obtained from ATCC, HeLa-MaTu and HeLa-MaTu-ADR, originally obtained from Epo GmbH, Berlin, Germany) were plated at a density of 1000 to 5000 cells/measuring point, depending on the growth rate of the cell line, in a 96-well multititer plate in 200 μl of growth medium (DMEM/HAMS F12, 2 mM L-glutamine, 10% fetal calf serum). After 24 hours the cells of one plate (zero-point plate) were stained with crystal violet (see below), whereas the medium of the other plates was replaced with fresh culture medium (200 μl), to which the test substances had been added at various concentrations (0 μM, and in the range 0.01-30 μM; the final concentration of the solvent dimethyl sulfoxide was 0.5%). The cells were incubated for 4 days in the presence of the test substances. Cellular proliferation was determined by staining the cells with crystal violet: the cells were fixed by adding 20 μl/measuring point of an 11% glutaraldehyde solution for 15 min at room temperature. After washing the fixed cells with water three times, the plates were dried at room temperature. The cells were stained by adding 100 μl/measuring point of a 0.1% crystal violet solution (pH adjusted to pH3 by adding acetic acid). After washing the stained cells with water three times, the plates were dried at room temperature. The dye was dissolved by adding 100 μl/measuring point of a 10% acetic acid solution. The extinction was determined photometrically at a wavelength of 595 nm. The percentage change in cell growth was calculated by standardization of the measured values to the extinction values of the zero-point plate (=0%) and the extinction of the untreated (0 μM) cells (=100%). The measured data were standardized to 0% inhibition (cell proliferation without inhibitor) and 100% inhibition (zero-point plate). The IC50 values were determined by means of a 4-parameter fit using the company's own software.
(§2) The substances were examined in the following cell lines which, in an exemplary manner, represent the stated indications: […]

MDA-MB 231 = assay: Proliferation assay MDA-MB 231; type: cell-based; details: Homo sapiens, 96 h; MDA-MB 231, estrogen receptor-negative mamma carcinoma; 4 days, crystal violet
Experimental: as §1, with “After washing the fixed cells with water three times, the plates were dried at room temperature. The cells were stained by adding 100 μl/measuring point of a 0.1% crystal violet solution (pH adjusted to pH3 by adding acetic acid). After washing the stained cells with water three times, the plates were dried at room temperature. The dye was dissolved by adding 100 μl/measuring point of a 10% acetic acid solution.” left out, “The measured data were standardized to 0% inhibition (cell proliferation without inhibitor) and 100% inhibition (zero-point plate).” left out, “software. […]” for “software.”

MIA PaCa-2 = assay: Proliferation assay MIA PaCa-2; type: cell-based; details: Homo sapiens, 96 h; MIA PaCa-2, pancreas carcinoma; 4 days, crystal violet
Experimental: as §1, §2

MCF7 = assay: Proliferation assay MCF7; type: cell-based, human; details: MCF7, estrogen receptor-positive mamma carcinoma; 4 days, crystal violet
Experimental: as §1, §2

NCI-ADR-Res = assay: Proliferation assay NCI-ADR-Res; type: cell-based; details: Homo sapiens, 96 h, ovarial carcinoma, 4 days, crystal violet
Experimental: as §1, §2

H1975 = assay: Proliferation assay H1975; type: cell-based; details: Homo sapiens, NCI-H1975, 96 h; H1975, non-small-cell bronchial carcinoma; 4 days, crystal violet
Experimental: as §1, §2

SW480 = assay: Proliferation assay SW480; type: cell-based; details: Homo sapiens, 96 h; SW480, colon/rectum carcinoma; 4 days, crystal violet
Experimental: as §1, §2

A549 = assay: Proliferation assay A549; type: cell-based; details: Homo sapiens, 96 h; A549, non-small-cell bronchial carcinoma; 4 days, crystal violet
Experimental: as §1, §2

PC3 = assay: Proliferation assay PC3; type: cell-based; details: Homo sapiens, PC-3, 96 h; PC3, prostate carcinoma; 4 days, crystal violet
Experimental: as §1, §2

[1] = biological target: T1, VEGF receptor tyrosine kinase-2 (VEGF-R2) (Homo sapiens, UniProt P35968); assay: VEGF receptor-2 kinase assay (Assay 3); type: biochemical; details: 8 μM ATP, poly-(Glu4Tyr), 10 min 22° C.; read-out: VEGF-R2 (Assay 3) Concentration for half-maximal inhibition of the enzyme activity, IC50
T1 construct: GST; made in house; host or cells: baculovirus-infected insect cells (Sf9)
Experimental: Recombinant VEGF receptor tyrosine kinase-2 was purified as GST fusion protein from baculovirus-infected insect cells (Sf9). Poly-(Glu4Tyr), used as kinase substrate, was purchased from Sigma.
VEGF receptor tyrosine kinase (90 ng/measuring point) was incubated for 10 min at 22° C. in the presence of various concentrations of test substances (0 μM, and within the range 0.001-30 μM) in 30 μl assay buffer [40 mM Tris/HCl pH5.5, 10 mM MgCl2, 1 mM MnCl2, 3 μM Na ortho-vanadate, 1.0 mM dithiothreitol, 8 μM adenosine triphosphate (ATP), 0.96 μg/measuring point poly-(Glu4Tyr), 0.2 μCi/measuring point ^33P-gamma ATP, 1.4% dimethyl sulfoxide]. The reaction was stopped by adding EDTA solution (250 mM, pH 8.0, 15 μl/measuring point).
From each reaction mixture, 15 μl was applied to P30 filter strips (from Wallac), and unincorporated ^33P-ATP was removed by washing the filter strips three times, for 10 min each time, in 0.5% phosphoric acid. After drying the filter strips for 1 hour at 70° C., the filter strips were covered with scintillator strips (MeltiLex™ A, from Wallac) and stoved for 1 hour at 90° C. The amount of incorporated ^33P (substrate phosphorylation) was determined by scintillation measurement in a gamma-radiation measuring instrument (Wallac). The measured data were standardized to 0% inhibition (enzyme reaction without inhibitor) and 100% inhibition (all assay components except enzyme). The IC50 values were determined by means of a 4-parameter fit using the company's own software.

Caki2 = assay: Proliferation assay Caki2; type: cell-based; details: Homo sapiens, CAKI-2, 96 h; Caki2, kidney carcinoma; 4 days, crystal violet
Experimental: as §1, §2

SK-BR-3 = assay: Proliferation assay SK-BR-3; type: cell-based; details: Homo sapiens, 96 h; SK-BR-3, estrogen receptor-negative mamma carcinoma; 4 days, crystal violet
Experimental: as §1, §2

786-O = assay: Proliferation assay 786-O; type: cell-based; details: Homo sapiens, 786-0, 96 h, kidney carcinoma, 4 days, crystal violet
Experimental: as §1, §2

Caco-2 = assay: Proliferation assay Caco-2; type: cell-based, human; details: Caco-2, colon/rectum carcinoma; 4 days, crystal violet
Experimental: as §1, §2

HT29 = assay: Proliferation assay HT29; type: cell-based; details: Homo sapiens, HT-29, 96 h; HT29, colon/rectum carcinoma; 4 days, crystal violet
Experimental: as §1, §2

OVCAR-8 = assay: Proliferation assay OVCAR-8; type: cell-based; details: Homo sapiens, 96 h; OVCAR-8, ovarial carcinoma; 4 days, crystal violet
Experimental: as §1, with “After washing the fixed cells with water three times, the plates were dried at room temperature. The cells were stained by adding 100 μl/measuring point of a 0.1% crystal violet solution (pH adjusted to pH3 by adding acetic acid). After washing the stained cells with water three times, the plates were dried at room temperature. The dye was dissolved by adding 100 μl/measuring point of a 10% acetic acid solution.” left out, “The measured data were standardized to 0% inhibition (cell proliferation without inhibitor) and 100% inhibition (zero-point plate).” left out, “software. […]” for “software.”

HeLa-MaTu-ADR = assay: Proliferation assay HeLa-MaTu-ADR; type: cell-based, human; details: cervix carcinoma, 4 days, crystal violet
Experimental: as §1, §2

DU145 = assay: Proliferation assay DU145; type: cell-based, human; details: DU145, prostate carcinoma; 4 days, crystal violet
Experimental: as §1, §2

A375 = assay: Proliferation assay A375; type: cell-based; details: Homo sapiens, A-375, 96 h; A375, skin: melanoma; 4 days, crystal violet
Experimental: as §1, with “After washing the fixed cells with water three times, the plates were dried at room temperature. The cells were stained by adding 100 μl/measuring point of a 0.1% crystal violet solution (pH adjusted to pH3 by adding acetic acid). After washing the stained cells with water three times, the plates were dried at room temperature. The dye was dissolved by adding 100 μl/measuring point of a 10% acetic acid solution.” left out, “The measured data were standardized to 0% inhibition (cell proliferation without inhibitor) and 100% inhibition (zero-point plate).” left out, “software. […]” for “software.”

A431 = assay: Proliferation assay A431; type: cell-based; details: Homo sapiens, A-431, 96 h; A431, skin: epidermis; 4 days, crystal violet
Experimental: as §1, §2

NCI-H460 = assay: Proliferation assay NCI-H460; type: cell-based, human; details: NCI-H460, non-small-cell bronchial carcinoma; 4 days, crystal violet
Experimental: as §1, §2

NCI-H69 = assay: Proliferation assay NCI-H69; type: cell-based; details: Homo sapiens, 96 h; NCI-H69, small-cell bronchial carcinoma; 4 days, crystal violet
Experimental: as §1, with “After washing the fixed cells with water three times, the plates were dried at room temperature. The cells were stained by adding 100 μl/measuring point of a 0.1% crystal violet solution (pH adjusted to pH3 by adding acetic acid). After washing the stained cells with water three times, the plates were dried at room temperature. The dye was dissolved by adding 100 μl/measuring point of a 10% acetic acid solution.” left out, “The measured data were standardized to 0% inhibition (cell proliferation without inhibitor) and 100% inhibition (zero-point plate).” left out, “software. […]” for “software.”

MDA-MB 453 = assay: Proliferation assay MDA-MB 453; type: cell-based; details: Homo sapiens, 96 h; MDA-MB 453, estrogen receptor-negative mamma carcinoma; 4 days, crystal violet
Experimental: as §1, §2

MOLM-13 = assay: Proliferation assay MOLM-13; type: cell-based; details: Homo sapiens, 96 h; MOLM-13, leukemia; 4 days, crystal violet
Experimental: as §1, with “After washing the fixed cells with water three times, the plates were dried at room temperature. The cells were stained by adding 100 μl/measuring point of a 0.1% crystal violet solution (pH adjusted to pH3 by adding acetic acid). After washing the stained cells with water three times, the plates were dried at room temperature. The dye was dissolved by adding 100 μl/measuring point of a 10% acetic acid solution.” left out, “The measured data were standardized to 0% inhibition (cell proliferation without inhibitor) and 100% inhibition (zero-point plate).” left out, “software. […]” for “software.”

HeLa = assay: Proliferation assay HeLa; type: cell-based; details: Homo sapiens, 96 h, cervix carcinoma, 4 days, crystal violet
Experimental: as §1, §2

HCT116 = assay: Proliferation assay HCT116; type: cell-based; details: Homo sapiens, HCT-116, 96 h; HCT116, colon/rectum carcinoma; 4 days, crystal violet
Experimental: as §1, §2

T1 sequence (P35968 20-1356, species assumed): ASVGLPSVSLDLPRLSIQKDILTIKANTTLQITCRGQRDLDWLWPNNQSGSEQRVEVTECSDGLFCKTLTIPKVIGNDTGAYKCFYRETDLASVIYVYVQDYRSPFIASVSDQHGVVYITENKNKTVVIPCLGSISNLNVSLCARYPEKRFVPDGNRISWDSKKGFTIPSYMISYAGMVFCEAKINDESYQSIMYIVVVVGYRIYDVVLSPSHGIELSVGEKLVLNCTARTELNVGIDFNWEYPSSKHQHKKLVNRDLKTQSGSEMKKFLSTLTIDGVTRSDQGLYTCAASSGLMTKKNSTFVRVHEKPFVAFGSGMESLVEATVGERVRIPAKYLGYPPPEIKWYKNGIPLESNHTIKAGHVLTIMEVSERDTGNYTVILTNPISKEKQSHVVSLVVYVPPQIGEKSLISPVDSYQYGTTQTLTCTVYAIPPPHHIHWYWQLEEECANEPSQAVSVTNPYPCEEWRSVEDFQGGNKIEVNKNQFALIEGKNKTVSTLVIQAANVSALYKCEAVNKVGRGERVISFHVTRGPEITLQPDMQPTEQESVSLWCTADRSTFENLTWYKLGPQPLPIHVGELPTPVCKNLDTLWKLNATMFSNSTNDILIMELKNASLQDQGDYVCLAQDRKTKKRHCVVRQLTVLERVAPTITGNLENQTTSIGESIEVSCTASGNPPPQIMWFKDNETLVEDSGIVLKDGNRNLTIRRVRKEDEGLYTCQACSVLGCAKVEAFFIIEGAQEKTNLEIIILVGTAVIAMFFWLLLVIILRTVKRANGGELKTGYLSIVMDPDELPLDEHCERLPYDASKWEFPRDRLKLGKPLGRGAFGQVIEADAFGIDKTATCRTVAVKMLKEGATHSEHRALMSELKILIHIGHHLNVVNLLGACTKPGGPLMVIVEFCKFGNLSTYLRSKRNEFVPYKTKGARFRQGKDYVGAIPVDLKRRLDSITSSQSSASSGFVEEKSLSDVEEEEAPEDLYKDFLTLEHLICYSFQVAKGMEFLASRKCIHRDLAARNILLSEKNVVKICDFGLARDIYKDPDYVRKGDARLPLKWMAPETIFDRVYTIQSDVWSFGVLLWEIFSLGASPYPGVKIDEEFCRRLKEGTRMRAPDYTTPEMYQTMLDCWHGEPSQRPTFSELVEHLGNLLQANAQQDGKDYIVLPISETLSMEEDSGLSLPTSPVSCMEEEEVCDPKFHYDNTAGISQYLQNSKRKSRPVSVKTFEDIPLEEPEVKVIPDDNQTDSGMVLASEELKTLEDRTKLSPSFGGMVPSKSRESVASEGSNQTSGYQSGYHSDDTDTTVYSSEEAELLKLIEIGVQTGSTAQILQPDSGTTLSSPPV

Structure (SMILES): C[C@@H](O)[C@@H](C)Oc1nc(Nc2ccc(S(=N)(=O)C3CC3)cc2)ncc1C(F)(F)F (mixture of isomers) [Example 1-SI-2, (RS)—S-Cyclopropyl-S-(4-{[4-{[(1R,2R)-2-hydroxy-1-methylpropyl]oxy}-5-(trifluoromethyl)-pyrimidin-2-yl]amino}phenyl)sulfoximide]
- IC50 (HeLa-MaTu): 11 nM
- IC50 (MDA-MB 231): 18 nM
- IC50 (MIA PaCa-2): 21 nM
- IC50 (MCF7): 15 nM
- IC50 (NCI-ADR-Res): 33 nM
- IC50 (H1975): 11 nM
- IC50 (SW480): 15 nM
- IC50 (A549): 20 nM
- IC50 (PC3): 25 nM
- IC50 [1]: 163 nM
- IC50 (Caki2): 26 nM
- IC50 (SK-BR-3): 13 nM
- IC50 (786-O): 20 nM
- IC50 (Caco-2): 16 nM
- IC50 (HT29): 29 nM
- IC50 (OVCAR-8): 12 nM
- IC50 (HeLa-MaTu-ADR): 8 nM
- IC50 (DU145): 8 nM
- IC50 (A375): 14 nM
- IC50 (A431): 14 nM
- IC50 (NCI-H460): 12 nM
- IC50 (NCI-H69): 37 nM
- IC50 (MDA-MB 453): 15 nM
- IC50 (MOLM-13): 14 nM
- IC50 (HeLa): 12 nM
- IC50 (HCT116): 18 nM
